Reference: patent US11547725B2, “Anti-cancer T cells and their preparation using coenzyme A” (UNIVERSITY HEALTH NETWORK, priority 2017, dated 2023)

Experiments:
[1] = system: dextran sulfate sodium (DSS) colitis; test: DSS colitis model; assay type: in vivo, mouse; conditions: 2.5% DSS in water 5 days; oral CoA 0.5 mg/mL in drinking water vs vehicle
Description: For DSS-colitis experiments, 8-12 week old female C57BL/6 mice were randomized into different cohorts and colitis was induced using 2.5% DSS (MP Bio) added to the drinking water of mice for 5 consecutive days. CoA (0.5 mg/mL) or vehicle control was added to the drinking water on day 0. On day 5, mice were switched to fresh water without any DSS added, supplemented with either CoA (0.5 mg/mL) or vehicle control.

CD8+ T cells [2] = test: Cytokines quantified in supernatant (cytometric bead array or ELISA); assay type: cell-based, mouse; conditions: three day culture, CD8+ T cells activated with vehicle or CoA
Description: (§1) Antibodies used for flow cytometry were purchased from eBioscience, Biolegend and BD Pharmingen. Antibody clones used were: CD4 (RM-45), CD8 (53-6.7), IL-22 (IL22JOP and Poly5164), IL-17 (eBio17B7), IFN-γ (XMG1.2) and TNF-α (MP6-XT22). Antibodies used for western blotting were HIF-1a (Caymen Chem-10006421) and β-actin (Sigma—A2066). For intracellular cytokine staining, cells were re-stimulated for 5-6 hours with Cell-Stimulation Cocktail (eBioscience) in the presence of Brefeldin A (eBioscience), followed by staining using Cytofix/Cytoperm (BD Pharmingen). Flow cytometry data was acquired on a FACSCanto II (BD) and analyzed using FlowJo software (Tree Star). Cytokines were quantified in the supernatant using LEGENDPLEX cytometric bead array (Biolegend) or by ELISA (eBioscience)
Oligomycin, Etomoxir, Diethyl succinate and Calcium-D Pantothenate were purchased from Sigma, and Coenzyme A Trilithium Salt (CoA) and HIF-inhibitor (CAS 934593-90-5) were purchased from EMD Millipore. Oligomycin (100 nm) was added to CD8+ T cells 24 hours after the start of activation, while Etomoxir (40 μm), Pantothenate (8 mM), Diethyl Succinate (14 mM) and HIF-Inhibitor (40 μM) were added at the start of activation. CoA was added at the start of activation unless otherwise indicated at a concentration of 2.5-3.5 mM depending on the lot.

CD4+ T cells [3] = test: Th22 polarization of SMARTA CD4+ T cells, cytokine expression; assay type: cell-based, mouse; conditions: CoA vs vehicle, non-polarizing or Th22 conditions
CD8+ T cells [4] = test: Tc subset polarization of CD8+ T cells, intracellular cytokine staining by flow cytometry; assay type: cell-based, mouse; conditions: for Tc22 polarization: CD8+ T cells activated three days in Tc22 conditions, compound vs vehicle (oligomycin 100 nm, etomoxir 40 μm, pantothenate 8 mM, CoA 2.5-3.5 mM)
HIF-1α = test: Western blotting for HIF-1a; assay type: cell-based, mouse; conditions: CD8+ T cells activated with vehicle or CoA
Description: as §1

CD4+ T cells [5] = test: OCR, OCR:ECAR ratio and ATP production in CD4+ T cells; assay type: cell-based, mouse; conditions: CD4+ T cells activated with vehicle or CoA
Description: (§2) Seahorse was performed as previously described (11). ATP quantification was performed on day 3 polarized T cells using a commercial kit (Sigma) according to the recommended protocol. For SITA, CD8+ T cells activated for three days in the presence of vehicle or CoA were harvested, washed and incubated for 2.5 hours with U-13C6-glucose (Cambridge Isotopes). Cells were then washed and pellet was frozen in methanol. The cells were thawed on ice and lysed by sonication at 4° C. using a Diagenode Bioruptor (30s. on, 30s off, 5 mins). The resulting mixtures were spun down (15 mins 13000 rpm 4° C.) to remove the cellular debris, the resulting supernatants were transferred to clean microfuge tubes and the solvent was removed using a speed-vac at room temperature. The resulting pellets were stored at −70° C. until derivitization. The pellets were solubilized in 30 μL of pyridine containing methoxyamine(10 mg/mL; Sigma) and each sample was spiked with 1 μL of myristic acid-D27 (750 ng/mL in pyridine; Cambridge Isotopes). The samples were vortexed, sonicated, transferred to autoinjection vials and incubated at room temperature for 30 mins. Subsequent to this, 70 uL of N-tert-Butyldimethylsilyl-N-methyltrifluoroacetamide (MTBSTFA; Sigma) was added and the samples were incubated at 70° C. for 30 mins. GC/MS analysis was performed using an Agilent 5975C GC/MS equipped with a DB-5MS+DG capillary column. […]

CD8+ T cells [6] = test: Stable isotope tracer analysis (SITA) with 13C-glucose, GC/MS; assay type: cell-based, mouse; conditions: three days CoA or vehicle
Description: as §2, with “mins.” for “mins. GC/MS analysis was performed using an Agilent 5975C GC/MS equipped with a DB-5MS+DG capillary column.”
The data was analyzed using Agilent MSD-Chemstation interfaced to the NIST11 library. […]

CD8+ T cells [7] = test: RNA sequencing of CD8+ T cells activated with CoA or vehicle; assay type: cell-based, mouse; conditions: RNA seq
Description: RNA was extracted from CD8+ T cells activated for three days in the presence of CoA or Vehicle using Qiagen RNEasy kit. Libraries were prepared using TruSeq Stranded Total RNA kit. Two hundred nanograms from RNA samples were ribosomal RNA depleted using Ribo-zero Gold rRNA beads, following purification the RNA was fragmented. The cleaved RNA fragments were copied into first strand cDNA using reverse transcriptase and random primers. This is followed by second strand cDNA synthesis using RNase H and DNA Polymerase I. A single “A” based were added and adapter ligated followed by purification and enrichment with PCR to create cDNA libraries. Final cDNA libraries were size validated using Agilent Bioanalyzer and concentration validated by qPCR. All libraries were normalized to 10 nM and pooled together. 10 pM of pooled libraries were loaded onto Illumina cBot for cluster generation. Clustered flow cell was then sequenced Pair-end 100 cycles V3 using Illumina HighSeq 2000 to achieve ˜30 million reads per sample.
The Tophat (2.0.8b) software suite with Bowtie (2.0.5) was used to align reads to the Mus musculus mm10 mouse genome (igenome). […] The cufflinks (2.2.1) software suite was used to quantify alignments. Cuffquant was used to quantify individual sample alignments and Cuffnorm was used to normalize quantified data for each group of biological replicates. […]

CD8+ T cells [8] = test: ATP quantification (commercial kit); assay type: cell-based, mouse; conditions: CD8+ T cells activated with CoA vs vehicle
Description: as §2

CD8+ T cells [9] = test: Seahorse OCR / ECAR; assay type: cell-based, mouse
Description: Seahorse was performed as previously described (11). ATP quantification was performed on day 3 polarized T cells using a commercial kit (Sigma) according to the recommended protocol. For SITA, CD8+ T cells activated for three days in the presence of vehicle or CoA were harvested, washed and incubated for 2.5 hours with U-13C6-glucose (Cambridge Isotopes). Cells were then washed and pellet was frozen in methanol. The cells were thawed on ice and lysed by sonication at 4° C. using a Diagenode Bioruptor (30s. on, 30s off, 5 mins). The resulting mixtures were spun down (15 mins 13000 rpm 4° C.) to remove the cellular debris, the resulting supernatants were transferred to clean microfuge tubes and the solvent was removed using a speed-vac at room temperature. The resulting pellets were stored at −70° C. until derivitization. The pellets were solubilized in 30 μL of pyridine containing methoxyamine(10 mg/mL; Sigma) and each sample was spiked with 1 μL of myristic acid-D27 (750 ng/mL in pyridine; Cambridge Isotopes). The samples were vortexed, sonicated, transferred to autoinjection vials and incubated at room temperature for 30 mins. Subsequent to this, 70 uL of N-tert-Butyldimethylsilyl-N-methyltrifluoroacetamide (MTBSTFA; Sigma) was added and the samples were incubated at 70° C. for 30 mins. GC/MS analysis was performed using an Agilent 5975C GC/MS equipped with a DB-5MS+DG capillary column. 1 uL of sample was injected onto the GC column in splitless mode with an inlet temperature of 280° C. and the data was collected by electron impact set at 70 eV. Helium was used as the carrier gas with a flow rate of 1.55 mL/min. The quadrupole was set at 150° C. and the GC/MS interface at 285° C. The oven program for all metabolite analyses started at 60° C. held for 1 min, then increasing at a rate of 10° C./min until 320° C. Bake-out was at 320° C. for 10 mins and the sample data were acquired in scan mode (1-600 m/z).
To further characterize these observed differences in each Tc subset, we analyzed their respective utilization of glycolysis versus OXPHOS using the Seahorse Bioanalyzer. This method allows the concurrent measurement of the oxygen consumption rate (OCR—indicative of OXPHOS) and the extracellular acidification rate (ECAR—indicative of glycolysis) in real-time. […] Consistent with the increased ATP yield of oxidative metabolism compared to glycolysis, Tc22s had the highest amounts of intracellular ATP (FIG. 1F). We also observed metabolites involved in the TCA cycle and OXPHOS, particularly succinate, to be increased in Tc22s (FIG. 6).

human CD8+ cells = test: Human T cell Tc22 polarization, intracellular cytokines by flow cytometry; assay type: cell-based; conditions: human naive T cells, Tc22 conditions, pantothenate 8 mM on day 0, five days
Description: Peripheral blood mononuclear cells were obtained from healthy donors following institutional review board approval. Written informed consent was obtained from all donors who provided the samples. PBMCs were magnetically sorted for naïve T cells (Miltenyi Biotec) and seeded into a 96-well plate previously coated with 5 μg/mL anti-CD3 (eBioscience, clone OKT3). To induce Tc22 polarization, the following antibodies and cytokines were added to culture: 1 μg/mL anti-CD28 (eBioscience, clone CD28.2), 5 μg/mL anti-IFNγ (BioLegend, clone B27), 5 μg/mL anti-IL-4 (BioLegend, clone 8D4-8), 5 μg/mL anti-TGFβ (eBioscience, clone 1D11.16.8), 20 ng/mL IL-6, 10 ng/mL IL-21, 10 ng/mL IL-23, 40 ng/mL TNF-α (All from BioLegend) and 2 ng/mL FICZ. Pantothenate (8 mM) or vehicle control was also added on day 0. Five days later, cells were stimulated with PMA/ionomycin+Brefeldin for 5-6 hours. Cells were then stained and analyzed for intracellular cytokines by flow cytometry.

[10] = re-stimulated 48 hours with anti-CD3 with vehicle or CoA
[11] = CD8+ T cells activated with CoA vs vehicle

For `CC(C)(COP(=O)(O)OP(=O)(O)OC[C@H]1O[C@@H](n2cnc3c(N)ncnc32)[C@H](O)[C@@H]1OP(=O)(O)O)[C@@H](O)C(=O)NCCC(=O)NCCS.[Li].[Li].[Li]` [CoA, Coenzyme A Trilithium Salt], the “Disease severity (% weight loss)” value [1] was “decrease in disease severity”, the “Cytokine profile in supernatants” value (CD8+ T cells [2]) was “primarily up-regulate IL-22” and the Th22 polarization (CD4+ T cells [3]) was “induced and enhanced Th22 polarization”. For the same molecule, the Tc22 polarization (CD8+ T cells [4]) was “greatly enhanced polarization”, the “Cytokine expression in non-polarizing conditions” value (CD8+ T cells [4]; CD8+ T cells activated with CoA alone, absence of polarizing cytokines) was “skewed primarily towards an IL-22^+ IL-17^− IFNγ^− population” and the “Tc22 induction in presence of IL-6 neutralizing antibody” value (CD8+ T cells [4]; CoA with anti IL-6 (10 ug/mL), three days) was “retained the ability to induce Tc22s”. For the same molecule, the “Tc22 polarization in APC-free system” value (CD8+ T cells [4]; platebound anti-CD3 and soluble anti CD28, three days, CoA added 24 hours after start, non-polarizing or Tc22 conditions) was “induced and enhanced Tc22 polarization”, the “IL-22 production in previously activated CD8+ T cells” value (CD8+ T cells [4]; [10]) was “able to induce IL-22 production” and the “Levels of HIF-1α” value (HIF-1α) was “substantially increased levels of HIF-1α”. The “ATP production in CD4+ T cells” value (CD4+ T cells [5]) was “enhanced ATP production”, the “Metabolic shift (OCR, OCR:ECAR ratio) in CD4+ T cells” value (CD4+ T cells [5]) was “metabolic shift towards OXPHOS” and the “Total intracellular pools of TCA intermediates” value (CD8+ T cells [6]) was “increased total intracellular pools of many of the TCA intermediates”. The “Incorporation of 13C label into TCA metabolites” value (CD8+ T cells [6]; then 2.5 hours 13C glucose) was “enhanced incorporation of the ^13C label into TCA metabolites”, the “Expression of genes up-regulated by Tc22 polarizing cytokines (Tc22 signature)” value (CD8+ T cells [7]; CoA alone vs vehicle, three days) was “strongly up-regulated” and the “Gene expression altered by treatment (GO term analysis)” value (CD8+ T cells [7]; CoA vs vehicle) was “primarily altered the expression of immune system genes and not metabolic genes”. The “Intracellular levels of ATP” value (CD8+ T cells [8]) was “increased intracellular levels of ATP”, the “Basal ECAR” value (CD8+ T cells [9]; [11]) was “lower basal ECAR” and the “Basal OCR” value (CD8+ T cells [9]; [11]) was “higher basal OCR”. The “OCR:ECAR ratio” value (CD8+ T cells [9]; [11]) was “high OCR:ECAR ratio” and the “Oxidative phenotype (OCR, ECAR, OCR:ECAR, ATP) in previously activated CD8+ T cells” value (CD8+ T cells [9]; [10]) was “promote an oxidative phenotype”.

For `CCOC(=O)[C@@]1(CCCCCCOc2ccc(Cl)cc2)CO1` [etomoxir, Etomoxir], the Tc22 polarization (CD8+ T cells [4]) was “had no effect on Tc22 polarization”.

`CC[C@H]1/C=C/C=C/C[C@@H](C)[C@H](O)[C@@](C)(O)C(=O)[C@@H](C)[C@H](O)[C@@H](C)C(=O)[C@@H](C)[C@H](O)[C@@H](C)/C=C/C(=O)O[C@@H]2[C@H](C)[C@H](CC1)O[C@]1(CC[C@H](C)[C@H](C[C@@H](C)O)O1)[C@H]2C` [oligomycin, Oligomycin] was tested, and the Tc22 polarization (CD8+ T cells [4]) was “decrease in Tc22 polarization”, the Tc1 polarization (CD8+ T cells [4]; Tc1 conditions, oligomycin 100 nm added 24 hours after start of activation) was “did enhance Tc1 polarization” and the Tc17 polarization (CD8+ T cells [4]; Tc17 conditions, oligomycin 100 nm added 24 hours after start of activation) was “did not affect Tc17 polarization”.

With `CC(C)(CO)[C@@H](O)C(=O)NCCC(=O)O` [pantothenate, Calcium-D Pantothenate] the Tc22 polarization (CD8+ T cells [4]) was “enhanced polarization” and the “Tc22 polarization, human CD8+ cells” value (human CD8+ cells) was “enhanced polarization”.

For `CCOC(=O)CCC(=O)OCC` [succinate, Diethyl succinate], the IL-22 production (CD8+ T cells [4]; CD8+ T cells activated three days with exogenous succinate (diethyl succinate 14 mM)) was “enhanced IL-22 production”.
